Experimental data: patent US10842765B2, “Methods of reducing or preventing oxidation of small dense ldl or membrane polyunsaturated fatty acids” (Amarin Pharmaceuticals Ireland Limited, priority 2016, dated 2020)
Several values for one entry are separate records, joined by “and”; a condition that tells them apart may be missing. Equal values may be shown once.

Legend:
[1] = tested on: human sdLDL; assay: Copper-induced sdLDL oxidation, TBARS, Example 7; type: biochemical
Description: Samples were prepared at 100 μg/mL sdLDL and incubated with EPA or DHA (10.0 μM each) for 30 minutes prior to initiating lipid oxidation using 10 μM CuSO4. Samples were maintained at 37° C. in a shaking water bath for 1 hour. Lipid oxidation was measured by colorimetric assay of TBARS formation and expressed as molar equivalents of MDA.
An experiment to study the antioxidant effect of EPA in LDL and small dense LDL (“sdLDL”) was performed. LDL and sdLDL were isolated from the plasma of healthy volunteers by iodixanol density gradient ultracentrifugation, and adjusted to a final apolipoprotein concentration of 2 mg/mL. […] Lipid oxidation was initiated with 10 μM CuSO4 and monitored by the colorimetric detection of thiobarbituric acid reactive substances (TBARS) for 1 hr. Vitamin E was also incubated with sample aliquots as a positive control.

[2] = tested on: human LDL; assay: Copper-induced unfractionated LDL oxidation, TBARS, Example 7; type: biochemical; settings: beginning at 1.0 μM; 1 hour
[3] = Glucose-induced membrane lipid peroxidation (LOOH) in lipid vesicles, Example 4; type: biochemical; settings: 1.0 μM; glucose 200 mg/dL; 96 hours
Description: An experiment was conducted to test the ability of EPA to interfere with the effects of high glucose on membrane lipid peroxidation and organization in vesicles enriched with PUFAs. […] Vitamin E (α-tocopherol) was also purchased from Sigma-Aldrich and prepared in ethanol at 1.0 mM (ε=3.06×10^4 M^−1 cm^−1 at 294 nm) just prior to experimental use. […] All test compounds were further diluted in ethanol or aqueous buffer as needed. Glucose was prepared in saline buffer (0.5 mM HEPES, 154 mM NaCl, pH 7.3) at 11.0 mM (200 mg/dL). CHOD-iodide color reagent (stock) was prepared, with slight modification, as described by from El-Saadani et al. (J. […] Samples were shell-dried under nitrogen gas and placed under vacuum for 1 h to remove residual solvent. […] Lipid suspensions were then vortexed for 3 min at ambient temperature to form MLVs. All MLV samples were subjected to time-dependent autoxidation by incubating at 37° C. in an uncovered, shaking water bath. This method allows lipid peroxidation to occur gradually without requiring the use of exogenous initiators. Small aliquots (5-100 μL) of each sample were removed, immediately following MLV preparation (0 hour) and after exposing samples to oxidative conditions for 72 or 96 hour, and combined with 1.0 mL of activated CHOD-iodide color reagent. Aliquot volume was reduced with each successive time point to ensure that spectrophotometric readings were within the optimal adsorption range. Test samples were covered and incubated in darkness at room temperature for at least 4 hr. Sample absorbances were then measured against a CHOD blank at 365 nm using a Beckman DU-640 spectrophotometer. The CHOD colorimetric assay is based on the oxidation of iodide (I^−) by lipid hydroperoxide (LOOH) to form triiodide (I3^−), the quantity of which is directly proportional to the amount of LOOH present in the lipid sample. The molar absorptivity (I3^−) of I3^− is 2.46×10^4 M^−1 cm^−1 at 365 nm. […]

[4] = tested on: rat renal glomerular endothelial cells; assay: NO and ONOO- release ex vivo from glomerular endothelial cells exposed to oxLDL and high glucose, Example 13; type: cell-based; settings: 10.0 μM, 1 hr; oxLDL 11 mg/dL and glucose 300 mg/dL; vs vehicle
Description: Healthy male Wistar Kyoto (WKY) rats, aged 7-9 weeks and weighing 250±20 g, were obtained from inbred colonies (National Institutes of Health, Bethesda, Md.). Animals were housed in a controlled environment that provided food and water ad libitum prior to the study. […] Animals were sacrificed and tissue samples obtained immediately for experimentation. All procedures were conducted in accordance with standard Institutional Animal Care and Use Committee guidelines and conformed to the Guide for the Care and Use of Laboratory Animals published by the US National Institutes of Health.
EPA and DHA were purchased from Sigma-Aldrich (St. Louis, Mo.) and solubilized in ethanol to 1.0 mM under nitrogen atmosphere. […]
LDL was oxidized according to the methods of Huber et al. 16 Briefly, the purified LDL fraction was dialyzed against Tris/NaCl Buffer (50 mM Tris in 0.15 M NaCl, pH 8.0) to remove EDTA. […] LDL oxidation was initiated with 20 μM CuSO4 and monitored spectrophotometrically (234 nm) over a period of 24 hours until complete. […]
Each analyte was measured from amperograms and standard calibration curves collected under maximum current. […] Changes in current (proportional to the molar concentrations of NO or ONOO^− released) were monitored continuously immediately following Cal stimulation. […]

[5] = X-ray diffraction of membrane cholesterol domains in POPC/cholesterol model membranes, Example 9; settings: C/P 1.5:1
Description: The fatty acid stock solutions were stored at −20° C. until use.
Samples were shell-dried under nitrogen gas and placed under vacuum for 3 hours to remove residual solvent at room temperature. After desiccation, each sample was resuspended in saline buffer (0.5 mM HEPES, 154 mM NaCl, pH 7.3) to yield a final phospholipid concentration of 2.5 mg/mL. Lipid suspensions were then vortexed for 3 minutes at ambient temperature to form MLVs.
Briefly, a 100 μL aliquot of each MLV preparation (containing 250 μg MLV) was transferred to a Lucite® sedimentation cell fitted with an aluminum foil substrate designed to collect MLVs into a single membrane pellet upon centrifugation.
After centrifugal orientation, sample supernatants were aspirated and aluminum foil substrates, each supporting a single membrane pellet, were removed from the sedimentation cells. Sample pellets were dried for 5-10 minutes at ambient conditions, mounted onto curved glass supports, and placed in hermetically-sealed, brass or glass containers (for immediate analysis or temporary storage, respectively). All x-ray diffraction experiments were conducted at 20° C., 74% relative humidity. The latter was established by exposing membrane samples to saturated solutions of L-(+)-tartaric acid (K2C4H4O6.½H2O) for at least 1 hour prior to experimental analysis. […]

[6] = tested on: HUVECs; assay: NO and ONOO- release from HUVECs exposed to oxLDL (nanosensors), Example 8; type: cell-based, human; settings: ECs exposed to oxLDL
Description: Human umbilical vein endothelial cells (HUVECs) were isolated into primary cultures from female donors by Clonetics (San Diego, Calif.) and purchased as proliferating cells. All cell culture donors were healthy, with no pregnancy or prenatal complications. […] The confluent cells (4 to 5×10^5 cells/35 mm dish) were placed with minimum essential medium containing 3 mM L-arginine and 0.1 mM BH4 [(6R)-5,6,7,8-tetrahydrobiopterin]. Before experimental use, the cells (from second or third passage) were rinsed twice with Tyrode-HEPES buffer with 1.8 mM CaCl2. […]
Oxidation was monitored by the use of measurements of TBARS. […] TBARS concentration was determined as malondialdehyde (MDA) equivalents with the use of an MDA standard curve. […]
The amperometric method (with a response time of 0.1 ms) provides a quantitative signal (current) that is directly proportional to changes (from basal levels) in NO or ONOO^− concentration. […] Basal NO or ONOO^− levels were measured by differential pulse voltammetry in separate experiments. […]
Data are presented as mean±S.D. for (N) separate samples or experiments. Differences between groups were analyzed using the two-tailed, Student t-test (for comparisons between only two groups) or ANOVA followed by Student-Newman-Keuls multiple comparisons post-hoc analysis (for comparisons between three or more groups). […]

Structure (SMILES)	inhibition of sdLDL oxidation vs vehicle ([1]; ATM at the highest dose, 1 hr)	inhibition of unfractionated LDL oxidation, dose dependence [2]	antioxidant effects, separate treatments [3]	reduction in ONOO^− release [4]	inhibition of sdLDL oxidation as compared to vehicle or DHA ([1]; 10.0 μM, after 4 hours)	inhibition of sdLDL oxidation (TBARS formation) vs vehicle ([1]; each agent 10 μM, 1 hr)	Relative Chotesterol Domain Peak Intensity ([5]; EPA D/P mole ratio 1:60)	Relative Chotesterol Domain Peak Intensity ([5]; EPA D/P mole ratio 1:90)	increase in NO release as compared to vehicle [6]
CC(C)c1c(C(=O)Nc2ccccc2O)c(-c2ccccc2)c(-c2ccc(F)cc2)n1CC[C@@H](O)C[C@@H](O)CC(=O)O [ATM, Ortho (o)-hydroxy atorvastatin metabolite]	90±2%	significant and dose-dependent inhibition of unfractionated LDL oxidation	separate and potent antioxidant effects	25%	–	–	–	–	–
CC/C=C\C/C=C\C/C=C\C/C=C\C/C=C\CCCC(=O)O [EPA, cis-5,8,11,14,17-eicosapentaenoic acid]	–	–	separate and potent antioxidant effects	–	significantly inhibited sdLDL oxidation	93±2% and 92±8%	29.5 ± 10.9	36.0 ± 3.1	45%
